Key:
[1] = tested on: phosphorylated MLC (downstream effector of RhoA); experiment: Western blotting of phosphorylated MLC, serum starvation-restimulation; format: cell-based, human; details: HCT116, serum starvation-restimulation
Description: Anti-RhoA (#2117), anti-GAPDH (#2118), anti-phosphoMLC (#3671), anti-MLC (#3672), anti-FLAG (#8146), anti-GFP (#2956), and anti-GST (#2624) were purchased from Cell Signaling Technology. Cells were washed with PBS and then harvested using cell lysis buffer (1% Triton X100, 10 mM beta glycerol phosphate, 10 mM sodium pyrophosphate, 40 mM HEPES, 4 mM EDTA, pH7.4) with 4% protease/phosphatase inhibitor cocktail (Pierce). Protein samples were quantified using BCA assays (Pierce), normalized and then boiled with 4× Laemmli sampling buffer in 95° C. for 5 mins. Samples were resolved in 10% polyacrylamide gel (Biorad) and then transferred onto PVDF membrane (Biorad) and blocked with blocking buffer (5% bovine serum albumin (BSA) in Tris-buffered saline with 0.1% Tween 20 (TBST)) for 1 h. Membrane was washed in TBST, followed by incubation with corresponding primary antibodies (diluted 1:1000 in 5% BSA/milk in TBST with 1% NaN3) overnight at 4° C. After washing thrice with TBST, the membrane was incubated with HRP-conjugated secondary antibodies (#7074 or 7076) for one hour at room temperature. The membrane was then incubated with LumiGlo reagent (Cell Signaling Technology) and chemiluminescence was captured using a Chemidoc (Biorad).
The effects of CL16 on RhoA downstream signals in CRCs with serum starvation-restimulation were examined.

HCT116 xenograft = experiment: Mouse HCT116 xenograft model; format: in vivo; details: nude mice, 10 mg/kg intraperitoneal
Description: FIG. 7A is a graph showing inhibition of tumor growth by CL16 in mouse HCT116 xenografts through intraperitoneal injection at 10 mg/kg (n=6 per group). FIG. 7B is a graph showing inhibition of tumor growth by CL16 in mouse HT29 xenografts through intraperitoneal injection at 10 mg/kg (n=7). FIG. 7C is a graph showing the body weight of mice with HT29 xenografts throughout the treatment with CL16. FIG. 7D is a graph showing inhibition of tumor growth by CL16 in mouse SW620 xenografts through intraperitoneal injection at 10 mg/kg (n=6 per group). FIG. 7E is a bar graph showing the tumor weight of harvested tumors from the treated mice with SW620 xenografts. FIG. 7F is a graph showing the body weight of mice with SW620 xenografts throughout the treatment with CL16. Statistical analysis using a two-tailed Student's t-test. *P<0.05.
7-week-old mice with weight around 20 g were inoculated subcutaneously with HCT116 (2×10^6 cells per mouse) or HT29 (3×10^6 cells per mouse) cells, in serum-free RMPI or Matrigel in PBS respectively. […] The tumor volume and body weight of the nude mice were measured throughout the treatment. The tumor volume was calculated by the equation: Volume (mm^3)=1×w^2/2, where 1 and w were the length and width of the tumor. At the end of the treatment, the mice were sacrificed and the tumor weight was measured. […]

RhoA = RhoA (Homo sapiens, UniProt P61586); experiment: RhoA-GTP rhotekin pull-down, serum starvation-re-stimulation; format: cell-based; design: endogenous in cells; host or cells: HCT116, HT29
Chain of RhoA (P61586 whole entry, the tested form may be a part): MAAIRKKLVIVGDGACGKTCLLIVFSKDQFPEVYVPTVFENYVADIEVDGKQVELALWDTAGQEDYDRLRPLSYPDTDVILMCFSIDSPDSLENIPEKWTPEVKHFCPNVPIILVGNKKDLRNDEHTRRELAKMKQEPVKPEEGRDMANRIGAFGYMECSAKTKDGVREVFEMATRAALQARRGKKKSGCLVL
Description: RhoA Pull-Down Activation Assay Biochem Kit (#BK036) was purchased from Cytoskeleton. According to the manufacturer's protocol, total cell lysate (0.5 mg/mL; 300 μL) was added to 7.5 μL of Rhotekin-Rho Binding Domain beads in 0.6 mL tubes. The solution mixture was incubated at 4° C. on an end-to-end rotator for 1 hour. Beads were washed with 500 μL of washing buffer once, then centrifuged at 5000g for 3 min and the supernatant was discarded. RhoA-GTP was then eluted in 2× laemmli buffer and resolved in 10% SDS-PAGE.
GTP loading onto RhoA is critical for the protein activation and mediating downstream signals. In view of the inhibitions of GDP-to-GTP exchange of RhoA by CL16 in vitro as discussed above, effects of CL16 on RhoA biology in colorectal cancer cells were examined. In the serum starvation-re-stimulation experiment, HCT116 cells were grown in serum-free medium with CL16, Rhosin or solvent control for 24 h, followed by stimulation with 10% FBS for 10 min. The cells were then lysed and the RhoA activity was assayed by the level of RhoA-GTP, which is the active form of RhoA. […] HT29 cells were incubated with solvent vehicle, CL16 or Rhosin in complete medium for 24 h. […] Confocal fluorescence images from HCT116 and HT29 cells expressing FRET RhoA-biosensor in the serum starvation-restimulation experiment were taken.

RhoA-GEF interactions = target: T1, RhoA-GEF interactions (Homo sapiens, UniProt P61586); experiment: Co-immunoprecipitation of GST-RhoA with GEF-containing cell lysates; format: biochemical; details: GST-RhoA with HEK293T cell lysates
T1 construct: host or cells: GEFs overexpressed in HEK293T lysates
T1 sequence (P61586 whole entry): as the sequence (P61586 whole entry, the tested form may be a part) above
Description: 10 μg of purified GST-RhoA was immobilized on Glutathione resin (Pierce) and incubated with CL16 in GTP-exchange buffer (20 mM HEPES, 150 mM NaCl, 5 mM MgCl2, pH 7.4) for 1 hour. Then, the mixture was centrifuged at 700g for 2 min and supernatant was discarded. 120 μg of total cell lysate with overexpression of GEF (Arhgefl p-115, Arhgefl2 LARG DH-PH domain, Arhgef13 Akap Lbc) was added to the resin. The mixture was put on an end-to-end rotator and incubated at 4° C. for 4 hours. The resin was then washed, eluted and subjected to immunoblotting.

Rac1 = Rac1 (Homo sapiens, UniProt P63000); experiment: Rac1-GTP PAK-PBD pull-down in HT29 cells; format: cell-based; design: endogenous in cells; host or cells: HT29; details: HT29, complete medium 24 h
Text: The procedure is similar to that for RhoA-GTP assay, except that Rac1-GTP and Cdc42-GTP in CRC cells were first enriched by Rac1 Pull-Down Activation Assay Biochem Kit (Cytoskeleton #BK035) instead of using the RhoA kit. The enriched Rac1-GTP and Cdc42-GTP were then immunoblotted by Rac1/2/3 antibody (CST #2465) and Cdc42 antibody (CST #2462) respectively.
GTP loading onto RhoA is critical for the protein activation and mediating downstream signals. In view of the inhibitions of GDP-to-GTP exchange of RhoA by CL16 in vitro as discussed above, effects of CL16 on RhoA biology in colorectal cancer cells were examined. In the serum starvation-re-stimulation experiment, HCT116 cells were grown in serum-free medium with CL16, Rhosin or solvent control for 24 h, followed by stimulation with 10% FBS for 10 min. The cells were then lysed and the RhoA activity was assayed by the level of RhoA-GTP, which is the active form of RhoA. […] HT29 cells were incubated with solvent vehicle, CL16 or Rhosin in complete medium for 24 h. The cells were then washed, lysed and subjected to rhotekin pull-down for blotting RhoA-GTP, or PAK-PBD pull-down for blotting Rac1-GTP and Cdc42-GTP. Confocal fluorescence images from HCT116 and HT29 cells expressing FRET RhoA-biosensor in the serum starvation-restimulation experiment were taken.

Compound: O=C(CCl)N1N=C(c2cc3ccccc3o2)CC1c1ccco1 (stereo not drawn) [CL16]
- phosphorylation of MLC upon serum re-stimulation [1]: significantly eliminated the increases in phosphorylation of MLC
- tumor growth vs vehicle control (HCT116 xenograft): significantly inhibited tumor growth
- RhoA-GTP level compared with Rhosin (RhoA; 10 μM CL16 vs 30 μM Rhosin): lower RhoA-GTP level
- cellular RhoA-GTP level after serum stimulation vs solvent control (RhoA; HCT116, serum-free 24 h, 10% FBS 10 min): much lower cellular RhoA-GTP levels
- RhoA interactions with ARHGEF1, LARG DH-PH domain, AKAP13 and ARHGAP4s (RhoA-GEF interactions): disruption of RhoA interactions
- Rac1 activity (Rac1-GTP) (Rac1): no significant changes
